{"source": "patent US10689381B2", "about": "(priority 2017, dated 2020)", "key": {"L1210": {"tested_on": "L1210", "assay": "cells", "type": "cell-based, mouse", "summary_of_the_method": "(§1)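 Cells seeded at 30,000 cells/mL in DMEM with 10% FBS, then exposed for 72 h to compound at six concentrations spanning 0–1000 nM or 0–10000 nM, in duplicate. Final incubation at 37 °C lasted 5 min for L1210 and 15 min for HCT116.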"}, "HCT116": {"tested_on": "HCT116", "assay": "cells", "type": "cell-based, human", "details": "for IC50: read-out: IC50 HCT116", "summary_of_the_method": "as §1"}}, "note": "Like-named read-outs stand apart in the source and are kept apart here."}
{"molecule": "CCC1(NC(=O)c2ccon2)CC2CN(CCc3c([nH]c4ccccc34)C(C(=O)OC)(c3cc4c(cc3OC)N(C)C3C(O)(C(=O)OC)C(OC(C)=O)C5(CC)C=CCN6CCC43C65)C2)C1", "note": "(centres unmarked) [Compound 143]", "values": [{"measurement": "IC50", "setting": "L1210; Table 5", "result": 4.5, "unit": "nM"}, {"measurement": "IC50", "setting": "HCT116; Table 5", "result": 7, "unit": "nM"}]}
{"molecule": "CCC1(NC(=O)C2CCOCC2)CC2CN(CCc3c([nH]c4ccccc34)C(C(=O)OC)(c3cc4c(cc3OC)N(C)C3C(O)(C(=O)OC)C(OC(C)=O)C5(CC)C=CCN6CCC43C65)C2)C1", "note": "(centres unmarked) [Compound 144]", "values": [{"measurement": "IC50", "setting": "L1210; Table 5", "result": 70, "unit": "nM"}, {"measurement": "IC50", "setting": "HCT116; Table 5", "result": 35, "unit": "nM"}]}
{"molecule": "CCC1(NC(=O)C2CCSCC2)CC2CN(CCc3c([nH]c4ccccc34)C(C(=O)OC)(c3cc4c(cc3OC)N(C)C3C(O)(C(=O)OC)C(OC(C)=O)C5(CC)C=CCN6CCC43C65)C2)C1", "note": "(centres unmarked) [Compound 145]", "values": [{"measurement": "IC50", "setting": "L1210; Table 5", "result": 460, "unit": "nM"}, {"measurement": "IC50", "setting": "HCT116; Table 5", "result": 450, "unit": "nM"}]}
{"molecule": "CCC1(NC(=O)C2CCN(C(=O)OC(C)(C)C)CC2)CC2CN(CCc3c([nH]c4ccccc34)C(C(=O)OC)(c3cc4c(cc3OC)N(C)C3C(O)(C(=O)OC)C(OC(C)=O)C5(CC)C=CCN6CCC43C65)C2)C1", "note": "(centres unmarked) [Compound 147]", "values": [{"measurement": "IC50", "setting": "L1210; Table 5", "result": 50, "unit": "nM"}, {"measurement": "IC50", "setting": "HCT116; Table 5", "result": 45, "unit": "nM"}]}
{"molecule": "CCC1(NC(=O)C2CCN(C)CC2)CC2CN(CCc3c([nH]c4ccccc34)C(C(=O)OC)(c3cc4c(cc3OC)N(C)C3C(O)(C(=O)OC)C(OC(C)=O)C5(CC)C=CCN6CCC43C65)C2)C1", "note": "(centres unmarked) [Compound 148]", "values": [{"measurement": "IC50", "setting": "L1210; Table 5", "result": 5300, "unit": "nM"}, {"measurement": "IC50", "setting": "HCT116; Table 5", "result": 4400, "unit": "nM"}]}
{"molecule": "CCC1(NC(=O)c2ccc3cccnc3c2)CC2CN(CCc3c([nH]c4ccccc34)C(C(=O)OC)(c3cc4c(cc3OC)N(C)C3C(O)(C(=O)OC)C(OC(C)=O)C5(CC)C=CCN6CCC43C65)C2)C1", "note": "(centres unmarked) [Compound 149]", "values": [{"measurement": "IC50", "setting": "L1210; Table 6", "result": 0.6, "unit": "nM"}, {"measurement": "IC50", "setting": "HCT116; Table 6", "result": 0.7, "unit": "nM"}]}
{"molecule": "CCC1(NC(=O)c2ccc3ncccc3c2)CC2CN(CCc3c([nH]c4ccccc34)C(C(=O)OC)(c3cc4c(cc3OC)N(C)C3C(O)(C(=O)OC)C(OC(C)=O)C5(CC)C=CCN6CCC43C65)C2)C1", "note": "(centres unmarked) [Compound 150]", "values": [{"measurement": "IC50", "setting": "L1210; Table 6", "result": 0.6, "unit": "nM"}, {"measurement": "IC50", "setting": "HCT116; Table 6", "result": 0.6, "unit": "nM"}]}
{"molecule": "CCC1(NC(=O)c2cnc3ccccc3c2)CC2CN(CCc3c([nH]c4ccccc34)C(C(=O)OC)(c3cc4c(cc3OC)N(C)C3C(O)(C(=O)OC)C(OC(C)=O)C5(CC)C=CCN6CCC43C65)C2)C1", "note": "(centres unmarked) [Compound 151]", "values": [{"measurement": "IC50", "setting": "L1210; Table 6", "result": 0.7, "unit": "nM"}, {"measurement": "IC50", "setting": "HCT116; Table 6", "result": 0.6, "unit": "nM"}]}
{"molecule": "CCC1(NC(=O)c2ccc3ccccc3n2)CC2CN(CCc3c([nH]c4ccccc34)C(C(=O)OC)(c3cc4c(cc3OC)N(C)C3C(O)(C(=O)OC)C(OC(C)=O)C5(CC)C=CCN6CCC43C65)C2)C1", "note": "(centres unmarked) [Compound 152]", "values": [{"measurement": "IC50", "setting": "L1210; Table 6", "result": 40, "unit": "nM"}, {"measurement": "IC50", "setting": "HCT116; Table 6", "result": 40, "unit": "nM"}, {"measurement": "loss in activity when acyl substitution site is ortho to the basic nitrogen", "setting": "HCT116; quinolyl series", "result": "about 100 fold"}]}
{"molecule": "CCC1(NC(=O)c2ccc3ccncc3c2)CC2CN(CCc3c([nH]c4ccccc34)C(C(=O)OC)(c3cc4c(cc3OC)N(C)C3C(O)(C(=O)OC)C(OC(C)=O)C5(CC)C=CCN6CCC43C65)C2)C1", "note": "(centres unmarked) [Compound 153]", "values": [{"measurement": "IC50", "setting": "L1210; Table 6", "result": 0.4, "unit": "nM"}, {"measurement": "IC50", "setting": "HCT116; Table 6", "result": 0.4, "unit": "nM"}]}
{"molecule": "CCC1(NC(=O)c2ccc3cnccc3c2)CC2CN(CCc3c([nH]c4ccccc34)C(C(=O)OC)(c3cc4c(cc3OC)N(C)C3C(O)(C(=O)OC)C(OC(C)=O)C5(CC)C=CCN6CCC43C65)C2)C1", "note": "(centres unmarked) [Compound 154]", "values": [{"measurement": "IC50", "setting": "L1210; Table 6", "result": 0.6, "unit": "nM"}, {"measurement": "IC50", "setting": "HCT116; Table 6", "result": 0.6, "unit": "nM"}]}
{"molecule": "CC[C@]1(NC(=O)c2ccc3nccnc3c2)C[C@H]2CN(CCc3c([nH]c4ccccc34)[C@@](C(=O)OC)(c3cc4c(cc3OC)N(C)[C@H]3[C@@](O)(C(=O)OC)[C@H](OC(C)=O)[C@]5(CC)C=CCN6CC[C@]43[C@@H]65)C2)C1", "note": "[Compound 155]", "values": [{"measurement": "IC50", "setting": "L1210; Table 6", "result": 0.6, "unit": "nM"}, {"measurement": "IC50", "setting": "HCT116; Table 6", "result": 0.6, "unit": "nM"}]}
{"molecule": "CCC1(NC(=O)c2cnc3ccccc3n2)CC2CN(CCc3c([nH]c4ccccc34)C(C(=O)OC)(c3cc4c(cc3OC)N(C)C3C(O)(C(=O)OC)C(OC(C)=O)C5(CC)C=CCN6CCC43C65)C2)C1", "note": "(centres unmarked) [Compound 156]", "values": [{"measurement": "IC50", "setting": "L1210; Table 6", "result": 6.2, "unit": "nM"}, {"measurement": "IC50", "setting": "HCT116; Table 6", "result": 5.9, "unit": "nM"}]}
{"molecule": "CCC1(NC(=O)c2ccc3ccoc3c2)CC2CN(CCc3c([nH]c4ccccc34)C(C(=O)OC)(c3cc4c(cc3OC)N(C)C3C(O)(C(=O)OC)C(OC(C)=O)C5(CC)C=CCN6CCC43C65)C2)C1", "note": "(centres unmarked) [Compound 157]", "values": [{"measurement": "IC50", "setting": "L1210; Table 6", "result": 3.3, "unit": "nM"}, {"measurement": "IC50", "setting": "HCT116; Table 6", "result": 2.2, "unit": "nM"}]}
{"molecule": "CCC1(NC(=O)c2ccc3occc3c2)CC2CN(CCc3c([nH]c4ccccc34)C(C(=O)OC)(c3cc4c(cc3OC)N(C)C3C(O)(C(=O)OC)C(OC(C)=O)C5(CC)C=CCN6CCC43C65)C2)C1", "note": "(centres unmarked) [Compound 158]", "values": [{"measurement": "IC50", "setting": "L1210; Table 6", "result": 5, "unit": "nM"}, {"measurement": "IC50", "setting": "HCT116; Table 6", "result": 3.8, "unit": "nM"}]}
{"molecule": "CCC1(NC(=O)c2coc3ccccc23)CC2CN(CCc3c([nH]c4ccccc34)C(C(=O)OC)(c3cc4c(cc3OC)N(C)C3C(O)(C(=O)OC)C(OC(C)=O)C5(CC)C=CCN6CCC43C65)C2)C1", "note": "(centres unmarked) [Compound 159]", "values": [{"measurement": "IC50", "setting": "L1210; Table 6", "result": 4, "unit": "nM"}, {"measurement": "IC50", "setting": "HCT116; Table 6", "result": 4.6, "unit": "nM"}]}
{"molecule": "CC[C@]1(NC(=O)c2cc3ccccc3o2)C[C@H]2CN(CCc3c([nH]c4ccccc34)[C@@](C(=O)OC)(c3cc4c(cc3OC)N(C)[C@H]3[C@@](O)(C(=O)OC)[C@H](OC(C)=O)[C@]5(CC)C=CCN6CC[C@]43[C@@H]65)C2)C1", "note": "[Compound 160]", "values": [{"measurement": "IC50", "setting": "L1210; Table 6", "result": 1.8, "unit": "nM"}, {"measurement": "IC50", "setting": "HCT116; Table 6", "result": 1.1, "unit": "nM"}]}
